Assay [1] deals with AKT2 (Homo sapiens, UniProt P31751). As to the kind of experiment: AKT2 enzymatic inhibition assay (HTRF KinEASE). The assay is classed as biochemical. The conditions noted are these: read-out: AKT2 pIC50 (converted). Here is the method: (§1) The IC50 values of Example compounds of the invention for AKT1, AKT2 and AKT3 were measured using HTRF (Homogeneous Time Resolved Fluorescence) KinEASE assays (62ST3PEB—1000 tests or 62ST3PEC—20,000 tests) from cisbio.com, according to manufacturer's instructions.
For orientation: Time-resolved FRET reads energy transfer from a long-lived donor to a nearby acceptor.

Assay [2] has as its target AKT3 (Homo sapiens, UniProt Q9Y243). As to the kind of experiment: AKT3 enzymatic inhibition assay (HTRF KinEASE). Conditions: read-out: AKT3 pIC50 (converted). The format is biochemical. Here is the method:
as §1

For assay [3], the target named is DNA-PK (Homo sapiens, UniProt P78527). Nature of the assay: DNA-PK enzymatic inhibition assay (HTRF KinEASE). The format is biochemical. Conditions: read-out: DNA-PK pIC50 (converted). The procedure: The IC50 values of Example compounds of the invention for DNA-PK were measured using the HTRF KinEASE assay as described above.
In assay [4] the target is AKT1 (Homo sapiens, UniProt P31749). As to the kind of experiment: AKT1 enzymatic inhibition assay (HTRF KinEASE). The assay is classed as biochemical. Conditions: read-out: AKT1 pIC50 (converted). Here is the method: as §1
Assay [5] concerns PEO4 cells. As to the kind of experiment: Relative re-sensitisation ratio of apoptosis induction (caspase 3/7 normalised to MTT) with cisplatin. Conditions: compound at 20 μM, triciribine at 25 μM, cisplatin 25 μM, 24 h. The assay is classed as cell-based. The procedure:
Cell viability was determined for different assays (as described in FIGS. 1 and 2, Table 5) in optically clear 96 well plates using the standard 3-(4, 5-dimethylthiazol-2-yl)-2, 5-diphenyl tetrazolium bromide (MTT) assay, which is a colorimetric method for determining the number of metabolically active cells in cytotoxicity assays. MTT is bioreduced by mitochondrial dehydrogenase enzymes into a coloured solid formazan product. MTT reagent (Sigma, UK) was initially prepared by dissolving in PBS at a concentration of 3 mg/ml. Following relevant drug treatments at different time points and cell lines (described in results section and FIGS. 1 and 2), MTT reagent was added to each experimental well at a final concentration of 0.5 mg/ml. After incubation for 3 h at 37° C. 5% CO2, an equal volume of stop solution (10% SDS in 0.01% HCl) was added and formed formazan crystals were allowed to dissolve shaking overnight. The following day, the optical density was read at 570 nm and analysis performed as per each assay type.
The caspase 3/7 activity of cells following treatment with inhibitor compounds or vehicle (DMSO) was determined using the Caspase-Glo® 3/7 Assay (Catalogue number G8093, Promega, US) according to manufacturer's instructions. Briefly, 10,000 cells per well for PEO1 and PEO4 cell lines or 5000 cells per well for SKOV3 cell line were grown in 96 well plates in a final volume of 50 μl and following relevant drug treatment of cells (example compound±cisplatin, comparative example compound±cisplatin, or vehicle±cisplatin) for 24 hours, an equal volume of Caspase-Glo® Reagent containing a luminogenic substrate for Caspase 3 and Caspase 7 was added i.e. if cells cultured in 50 μl of media, 50 μl of caspase reagent was added. After 1 h incubation at room temperature in the dark, the luminescence of each sample was measured in a plate-reading luminometer (LUMIstar OPTIMA, BMG Labtech, Germany). Caspase 3/7 activity data was normalised to corresponding viability data from MTT and analysis was performed according to each experimental set-up.
. Apoptosis (caspase 3/7) and viability (MTT) assays were carried out as described for each assay protocols and the phenotypic apoptosis assays above. Relative apoptosis induction was inferred from caspase 3/7 assay values normalised to the standard MTT viability assay values of each corresponding well. […]

Several values for one entry are separate records, joined by “and”; a condition that tells them apart may be missing. Equal values may be shown once.

AKT1, sequence (P31749 150-408 limits assumed): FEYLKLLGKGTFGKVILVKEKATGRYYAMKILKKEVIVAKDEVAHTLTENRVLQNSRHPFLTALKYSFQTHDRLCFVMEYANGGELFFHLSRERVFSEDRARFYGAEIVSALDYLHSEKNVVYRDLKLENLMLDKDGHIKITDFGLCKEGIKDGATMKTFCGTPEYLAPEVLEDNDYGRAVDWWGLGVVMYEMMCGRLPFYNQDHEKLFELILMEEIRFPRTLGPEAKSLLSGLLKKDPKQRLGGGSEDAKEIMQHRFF
AKT2, sequence (P31751 152-409 limits assumed): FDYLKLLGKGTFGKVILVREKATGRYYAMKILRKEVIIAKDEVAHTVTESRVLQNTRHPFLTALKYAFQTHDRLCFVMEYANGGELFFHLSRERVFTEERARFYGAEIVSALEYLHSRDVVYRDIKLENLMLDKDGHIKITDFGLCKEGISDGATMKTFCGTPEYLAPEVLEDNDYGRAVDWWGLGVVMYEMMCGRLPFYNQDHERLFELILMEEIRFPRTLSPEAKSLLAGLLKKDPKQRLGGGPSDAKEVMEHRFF
AKT3, sequence (Q9Y243 148-405 limits assumed): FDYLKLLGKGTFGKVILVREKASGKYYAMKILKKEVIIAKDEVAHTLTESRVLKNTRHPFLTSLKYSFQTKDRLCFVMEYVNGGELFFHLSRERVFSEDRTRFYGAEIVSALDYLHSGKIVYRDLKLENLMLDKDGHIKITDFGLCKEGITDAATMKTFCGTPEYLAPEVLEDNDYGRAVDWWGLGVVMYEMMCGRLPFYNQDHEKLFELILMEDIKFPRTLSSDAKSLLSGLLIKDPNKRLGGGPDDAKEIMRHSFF

Consider `COc1ccc(O)c(C(=O)c2ccc(C(=O)N[C@@H]3CCCNC[C@H]3NC(=O)c3ccncc3)cc2)c1F` [Roche comp-4, N-{(3R,4R)-4-[4-(2-fluoro-6-hydroxy-3-methoxy-benzoyl)-benzoylamino]-azepan-3-yl}-isonicotinamide, reference compound], for which the IC50 in assay [1] was 170 nM; in assay [2], 209 nM; in assay [3], 8.51 nM.

With `CN(C)CCCC(O)(c1ccc(Cl)cc1)C1CCN(c2ncnc3[nH]nc(Br)c23)CC1` (stereo not shown) [Example 8, 1-(1-(3-bromo-1H-pyrazolo[3,4-d]pyrimidin-4-yl)piperidin-4-yl)-1-(4-chlorophenyl)-4-(dimethylamino)butan-1-ol], the IC50 in assay [4] was 2.57 nM; in assay [1], 6.03 nM; in assay [2], 0.955 nM; in assay [3] it was 3.47 nM. Further, in assay [5], the “Relative re-sensitisation ratio of apoptosis induction (caspase 3/7) relative to triciribine phosphate” value (“Relative re-sensitisation ratio” below) is 1.73.

Regarding `CN(C)CC(c1ccc(Cl)cc1)C1CCN(c2ncnc3[nH]nc(Br)c23)CC1` (stereo not shown) [Example 7, 2-(1-(3-bromo-1H-pyrazolo[3,4-d]pyrimidin-4-yl)piperidin-4-yl)-2-(4-chlorophenyl)-N,N-dimethylethan-1-amine], the IC50 in assay [4] is 0.912 nM; in assay [1] it was 3.63 nM; in assay [2], 1.38 nM; in assay [3], 2.75 nM. In addition, the “Relative re-sensitisation ratio” value in assay [5] was determined as 2.3.

`CN(C)C(=O)C(c1ccc(Cl)cc1)N1CCN(c2ncnc3[nH]nc(Br)c23)CC1` (stereo not shown) [Example 4, 2-(4-(3-bromo-1H-pyrazolo[3,4-d]pyrimidin-4-yl)piperazin-1-yl)-2-(4-chlorophenyl)-N,N-dimethylacetamide]: the IC50 is 1350 nM in assay [4], 2240 nM in assay [1], 603 nM in assay [2] and 141 nM in assay [3]. For the same compound, the “Relative re-sensitisation ratio” value in assay [5] came out at 2.6.

Regarding `CN(C)CC(c1ccc(Cl)cc1)C1CCN(c2ncnc3[nH]nc(C(F)(F)F)c23)CC1` (stereo not shown) [Example 11, 2-(4-chlorophenyl)-N,N-dimethyl-2-(1-(3-(trifluoromethyl)-1H-pyrazolo[3,4-d]pyrimidin-4-yl)piperidin-4-yl)ethan-1-amine], the IC50 was 0.912 nM in assay [4], 1.66 nM in assay [1], 0.316 nM in assay [2] and 1.7 nM in assay [3]. The “Relative re-sensitisation ratio” value in assay [5] is on record as 1.3.

For `CN(C)CCCOC(c1ccc(Cl)cc1)C1CCN(c2ncnc3[nH]nc(Br)c23)CC1` (stereo not shown) [Example 10, 3-((1-(3-bromo-1H-pyrazolo[3,4-d]pyrimidin-4-yl)piperidin-4-yl)(4-chlorophenyl)methoxy)-N,N-dimethylpropan-1-amine], the “Relative re-sensitisation ratio” value in assay [5] is 1.5.

For the compound `CN(C)CCCC(=C1CCN(c2ncnc3[nH]nc(C(F)(F)F)c23)CC1)c1ccc(Cl)cc1` [Example 15, 4-(4-chlorophenyl)-N,N-dimethyl-4-(1-(3-(trifluoromethyl)-1H-pyrazolo[3,4-d]pyrimidin-4-yl)piperidin-4-ylidene)butan-1-amine], the IC50 in assay [4] is 933 nM; in assay [1] it was 490 nM; in assay [2] it was 158 nM; in assay [3], 12 nM. Also, the “Relative re-sensitisation ratio” value in assay [5] was determined as 1.1.

In the case of `CN1N=C(N)c2cn([C@@H]3O[C@H](COP(=O)(O)O)[C@@H](O)[C@H]3O)c3ncnc1c23` [Triciribine phosphate, ((2R,3S,4R,5R)-5-(3-amino-5-methyl-1,4,5,6,8-pentaazaacenaphthylen-1(5H)-yl)-3,4-dihydroxytetrahydrofuran-2-yl)methyl dihydrogen phosphate, reference compound], the “Relative re-sensitisation ratio” value in assay [5] is given as 1.0.

On to `CN(C)CC(c1ccc(Cl)cc1)N1CCN(c2ncnc3[nH]nc(C(F)(F)F)c23)CC1` (stereo not shown) [Example 13, 2-(4-chlorophenyl)-N,N-dimethyl-2-(4-(3-(trifluoromethyl)-1H-pyrazolo[3,4-d]pyrimidin-4-yl)piperazin-1-yl)ethanamine], for which the IC50 in assay [4] is 7.08 nM; in assay [1], 7.24 nM; in assay [2], 2.95 nM; in assay [3] it was 1.86 nM. Besides, in assay [5], the “Relative re-sensitisation ratio” value is given as 1.2.

As for `CN(C)CCCCC(O)(c1ccc(Cl)cc1)C1CCN(c2ncnc3[nH]nc(Br)c23)CC1` (stereo not shown) [Example 14, 1-(1-(3-bromo-1H-pyrazolo[3,4-d]pyrimidin-4-yl)piperidin-4-yl)-1-(4-chlorophenyl)-5-(dimethylamino)pentan-1-ol], the IC50 in assay [4] was 2.51 nM; in assay [1], 6.46 nM; in assay [2], 1.29 nM; in assay [3] it was 4.68 nM. Moreover, the “Relative re-sensitisation ratio” value in assay [5] was determined as 1.2.

In the case of `CN(C)CCNC(=O)C(c1ccc(Cl)cc1)N1CCN(c2ncnc3[nH]nc(Br)c23)CC1` (single isomer, unassigned; (+)) [Example 3b, (+)-2-(4-(3-bromo-1H-pyrazolo[3,4-d]pyrimidin-4-yl)piperazin-1-yl)-2-(4-chlorophenyl)-N-(2-(dimethylamino)ethyl)acetamide], the IC50 in assay [4] is 15.1 nM; in assay [1] it was 34.7 nM; in assay [2] it was 5.25 nM; in assay [3], 10.5 nM. Besides, the “Relative re-sensitisation ratio” value in assay [5] came to 1.4.

Turning to `CN(C)CCNC(c1ccc(Cl)cc1)C1CCN(c2ncnc3[nH]nc(Br)c23)CC1` (stereo not shown) [Example 9, N^1-((1-(3-bromo-1H-pyrazolo[3,4-d]pyrimidin-4-yl)piperidin-4-yl)(4-chlorophenyl)methyl)-N^2,N^2-dimethylethane-1,2-diamine], the IC50 in assay [4] was 1.2 nM; in assay [1] it was 2.75 nM; in assay [2] it was 0.676 nM; in assay [3] it was 1.95 nM. In addition, the “Relative re-sensitisation ratio” value in assay [5] is 1.5.

Take `CCN(CC)CCS(=O)(=O)N(c1ccc(Cl)cc1)C1CCN(c2ncnc3[nH]nc(Br)c23)CC1` [Example 6, N-(1-(3-bromo-1H-pyrazolo[3,4-d]pyrimidin-4-yl)piperidin-4-yl)-N-(4-chlorophenyl)-2-(diethylamino)ethane-1-sulfonamide]: the IC50 in assay [4] is 1.32 nM; in assay [1] it was 7.41 nM; in assay [2], 0.851 nM; in assay [3], 6.17 nM. In addition, the “Relative re-sensitisation ratio” value in assay [5] is reported as 2.3.

`CN(C)CCNC(=O)C(c1ccc(Cl)cc1)N1CCN(c2ncnc3[nH]nc(Br)c23)CC1` (stereo not shown) [Example 3, 2-(4-(3-bromo-1H-pyrazolo[3,4-d]pyrimidin-4-yl)piperazin-1-yl)-2-(4-chlorophenyl)-N-(2-(dimethylamino)ethyl)acetamide]: the “Relative re-sensitisation ratio” value in assay [5] was determined as 1.7.

Turning to `CN(C)CCNC(=O)C(c1ccc(Cl)cc1)N1CCN(c2ncnc3[nH]nc(Br)c23)CC1` (single isomer, unassigned; (-)) [Example 3a, (−)-2-(4-(3-bromo-1H-pyrazolo[3,4-d]pyrimidin-4-yl)piperazin-1-yl)-2-(4-chlorophenyl)-N-(2-(dimethylamino)ethyl)acetamide], the IC50 in assay [4] was 4.47 nM and 1.58 nM; in assay [3], 4.9 nM and 10.7 nM. Also, the “Relative re-sensitisation ratio” value in assay [5] turned out to be 2.7.

As to `Cc1n[nH]c2ncnc(N3CCC(C(OCCN(C)C)c4ccc(Cl)cc4)CC3)c12` (stereo not shown) [Example 5, 2-((4-chlorophenyl)(1-(3-methyl-1H-pyrazolo[3,4-d]pyrimidin-4-yl)piperidin-4-yl)methoxy)-N,N-dimethylethan-1-amine], the IC50 in assay [4] is 12.6 nM; in assay [1] it was 27.5 nM; in assay [2] it was 7.24 nM; in assay [3], 7.08 nM. Also, the “Relative re-sensitisation ratio” value in assay [5] is 2.5.
